Patent US10071976B2, “Small molecule fatty acid synthase inhibitors” (Sanford Burnham Prebys Medical Discovery Institute, priority 2014, dated 2018)
Several values for one entry are separate records, joined by “and”; a condition that tells them apart may be missing. Identical values can stand only once. Values belong to the compound of their own block, whether it stands above or below them.

Experiments:
[1] = target: T1, FASN-TE (Homo sapiens, UniProt P49327); assay: In-vitro biochemical assay measuring FAS-TE inhibition (OMFH substrate, fluorescence)
Protocol: Min wells: Substrate+No enzyme+DMSO, Max wells: Substrate+Enzyme+DMSO, Sample wells: Substrate+Enzyme+Test compounds, Reference compound: Orlistat (make a fresh 10 mM stock in DMSO each time). 384-well black, low-volume plate (Greiner #784076)
Assay Protocol: • 1) ECHO transfer 160 nL of 125× Compound (or DMSO for control wells) per well. • 2) For Max and Sample wells: Add 10 μL of Enzyme (2×; 1.8 μM) prepared in RXN Buffer. For Min wells: Add 10 μL of RXN Buffer (No Enzyme). • 3) For all wells: Add 10 μL of Substrate (2×; 20 μM) prepared in diH2O+10% DMSO. • 4) Centrifuge plate for 1 minute at 1,000 rpm. • 5) Measure fluorescence every 5 minutes for 1-1.5 hours using the BMG POLARstar (ex 485 nm/em 520 nm; Gain=1015; 25 flashes). • 6) All volumes can be adjusted but the final DMSO concentration should be kept at about 6%.
Data Analysis: • 1) Calculate slopes and express as % Activity (Min wells=0%; Max wells=100%). • 2) Then, using Prism, calculate the IC50 values.

[2] = test system: prostate cancer PC-3 cells; assay: De novo palmitate synthesis from 13C-glucose in whole cells (GC-MS); type: cell-based; conditions: for de novo palmitate synthesis/DMSO (%): 20 μM, [U-13C]-glucose 24 h, pH 7.8, relative to DMSO control
Protocol: The ability of compounds to block biosynthesis of palmitate in whole cells (prostate cancer PC-3 cells) was measured by feeding cells isotopically labeled glucose (^13C-glucose) and measuring the incorporation of ^13C into palmitate by GC-MS.
Prostate cancer PC-3 cell were incubated with 20 μM of FASN inhibitors and labeled with [U-13C]-glucose for 24 h, pH 7.8. The incorporation of ^13C into palmitate from labeled glucose was determined by extracting fatty acids and resolving them by GC-MS. The mass distributions for fatty acid methyl esters for C16:0 (palmitate) were corrected for isotope natural abundance, and the corrected isotope patterns were used to calculate the labeling of acetyl-CoA in palmitate based on a binomial probability distribution of the incorporation of labeled acetyl units into the fatty acid chain.

[3] = target: T2, FASN (Homo sapiens, UniProt P49327); assay: Competition with activity-based probe FP-PEG-TAMRA in PC-3 whole cell lysate: FASN; type: binding; conditions: PC-3 lysate, 20 μM final, pH 7.8
T2 construct: lysates of the prostate tumor line (PC3), which expresses FASN; endogenous in cells; host or cells: PC-3 prostate tumour cells (whole cell lysate)
Protocol: Studies were conducted to determine the selectivity of compound 16 for FASN over other human thioesterases. The ability of the compounds to bind the FASN holoenzyme was tested by assessing their ability to compete for the binding of an activity-based probe that covalently attaches to the active site of the FASN thioesterase. Thioesterases are members of the serine hydrolase family, which also includes a number of other types of enzymes including proteases, dipeptidyl peptidases, epoxide hydrolases, etc. To help assess the selectivity of compound 16, an activity-based probe polyethyleneglycol-6-carboxytetramethyl-rhodamine (FP-PEG-TAMRA) that binds covalently to the catalytic serine of all serine hydrolases was used. These studies were done by assessing the ability of compound 16 to compete for the binding of the activity-based probe in whole cell lysates. Several analogs of compound 16 were tested in this assay using lysates of the prostate tumor line (PC3), which expresses FASN, along with numerous other serine hydrolases. The PC-3 lysate was incubated with 8 different FASN inhibitors, including compounds 1, 16 and 97. Then the activity-based probe (FP-PEG-TAMRA) was added to each sample to label the serine hydrolases in the lysate.

[4] = target: T3, FASN thioesterase (Homo sapiens, UniProt P49327); assay: FP-PEG-TAMRA labeling of recombinant FASN thioesterase; type: binding; conditions: recombinant enzyme, 20 μM final, pH 7.8
T3 construct: label the active site of the FASN thioesterase and ACOT4
Protocol: (§1) Additionally, studies were performed to test the selectivity of Compounds 1, 16, 22, and 37 for the FASN thioesterase over its most closely related human homolog, the enzyme called ACOT4 (see FIG. 3). Both proteins were mixed and pretreated with the compound (20 μM final, pH 7.8) before addition of the fluorescent activity probe FP-PEG-TAMRA. Respective fluorescence of the bands was detected on a Hitachi flatbed scanner and a greyscale version used for quantitative analysis using ImageJ. Recombinant forms of each enzyme were incubated with compound 16, compound 1, compound 37, and compound 22. FP-TAMRA was included in this mixture to label the active site of the FASN thioesterase and ACOT4. […] These findings further attest to the high degree of selectivity of compounds 1, 16, 37 and 22 for the FASN thioesterase.

[5] = target: T4, ACOT4 (Homo sapiens, UniProt Q8N9L9); assay: FP-PEG-TAMRA labeling of recombinant ACOT4; type: binding; conditions: recombinant enzyme, 20 μM final, pH 7.8
T4 sequence (Q8N9L9 1-421): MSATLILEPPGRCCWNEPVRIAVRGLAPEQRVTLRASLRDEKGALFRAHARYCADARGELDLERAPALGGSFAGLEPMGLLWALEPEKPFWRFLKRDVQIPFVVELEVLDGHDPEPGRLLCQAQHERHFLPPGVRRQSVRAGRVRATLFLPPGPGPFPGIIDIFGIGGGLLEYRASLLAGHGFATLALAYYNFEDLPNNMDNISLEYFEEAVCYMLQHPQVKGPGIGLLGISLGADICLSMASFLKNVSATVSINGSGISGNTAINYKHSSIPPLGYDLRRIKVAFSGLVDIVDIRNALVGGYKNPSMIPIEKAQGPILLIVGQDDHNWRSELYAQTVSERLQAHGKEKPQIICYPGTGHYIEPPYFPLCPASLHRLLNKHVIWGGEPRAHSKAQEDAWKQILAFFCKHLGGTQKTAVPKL
Protocol: as §1

[6] = target: T1, FASN-TE; assay: Eadie-Hofstee enzymology analysis; type: biochemical
Protocol: Furthermore, using a classical enzymology analysis (Eadie-Hofstee) compound 37 was determined to have a non-competitive mode of inhibition (see FIG. 2).

[7] = test system: enzymes, receptors & ion channels; assay: Commercial panel of 34 binding assays (Eurofins Panlabs); conditions: 10 μM
Protocol: (§2) To further evaluate selectivity and identify any off-target effects, compound 37 was tested against a commercial panel of 34 binding assays (enzymes, receptors & ion channels) through Eurofins Panlabs. […] Compound 37 was also tested in a commercial panel of 17 diverse proteases (Reaction Biology).

[8] = target: T5, CYP450 2C19 (Homo sapiens, UniProt P33261); assay: Eurofins Panlabs binding panel: CYP450 2C19; conditions: 10 μM
T5 construct: purchased Eurofins Panlabs
Protocol: as §2

[9] = test system: sodium channel; assay: Eurofins Panlabs binding panel: sodium channel; conditions: 10 μM
Protocol: as §2

[10] = test system: 17 diverse proteases; assay: Commercial panel of 17 diverse proteases (Reaction Biology); type: biochemical; conditions: up to 100 μM
Protocol: as §2

[11] = test system: chymotrypsin; assay: Reaction Biology protease panel: chymotrypsin; type: biochemical; conditions: read-out: chymotrypsin inhibition (IC50)
Protocol: as §2

[12] = Pharmacokinetic study, IP dosing; type: in vivo; conditions: mice, 10 mg/kg IP
Protocol: A pharmacokinetic (PK) study of Compound 37 dosed systemically (IP) in mice was conducted. At 10 mg/kg (IP) compound 37 attained plasma levels post dosing of >3 μM up to 30 min., >2 μM up to 1 h, and >1 μM up to 2 h.

T1 sequence (P49327 2207-2511 limits assumed): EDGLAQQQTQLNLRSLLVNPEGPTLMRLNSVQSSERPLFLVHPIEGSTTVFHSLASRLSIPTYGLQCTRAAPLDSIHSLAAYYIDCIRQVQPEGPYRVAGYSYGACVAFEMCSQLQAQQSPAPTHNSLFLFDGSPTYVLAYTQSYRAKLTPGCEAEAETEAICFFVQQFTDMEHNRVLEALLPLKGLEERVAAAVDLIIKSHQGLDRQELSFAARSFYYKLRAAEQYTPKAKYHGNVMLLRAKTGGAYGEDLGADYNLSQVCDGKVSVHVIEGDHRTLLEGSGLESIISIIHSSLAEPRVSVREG
T3 sequence (P49327 2207-2511 limits assumed): as above
T2 sequence (P49327 whole entry): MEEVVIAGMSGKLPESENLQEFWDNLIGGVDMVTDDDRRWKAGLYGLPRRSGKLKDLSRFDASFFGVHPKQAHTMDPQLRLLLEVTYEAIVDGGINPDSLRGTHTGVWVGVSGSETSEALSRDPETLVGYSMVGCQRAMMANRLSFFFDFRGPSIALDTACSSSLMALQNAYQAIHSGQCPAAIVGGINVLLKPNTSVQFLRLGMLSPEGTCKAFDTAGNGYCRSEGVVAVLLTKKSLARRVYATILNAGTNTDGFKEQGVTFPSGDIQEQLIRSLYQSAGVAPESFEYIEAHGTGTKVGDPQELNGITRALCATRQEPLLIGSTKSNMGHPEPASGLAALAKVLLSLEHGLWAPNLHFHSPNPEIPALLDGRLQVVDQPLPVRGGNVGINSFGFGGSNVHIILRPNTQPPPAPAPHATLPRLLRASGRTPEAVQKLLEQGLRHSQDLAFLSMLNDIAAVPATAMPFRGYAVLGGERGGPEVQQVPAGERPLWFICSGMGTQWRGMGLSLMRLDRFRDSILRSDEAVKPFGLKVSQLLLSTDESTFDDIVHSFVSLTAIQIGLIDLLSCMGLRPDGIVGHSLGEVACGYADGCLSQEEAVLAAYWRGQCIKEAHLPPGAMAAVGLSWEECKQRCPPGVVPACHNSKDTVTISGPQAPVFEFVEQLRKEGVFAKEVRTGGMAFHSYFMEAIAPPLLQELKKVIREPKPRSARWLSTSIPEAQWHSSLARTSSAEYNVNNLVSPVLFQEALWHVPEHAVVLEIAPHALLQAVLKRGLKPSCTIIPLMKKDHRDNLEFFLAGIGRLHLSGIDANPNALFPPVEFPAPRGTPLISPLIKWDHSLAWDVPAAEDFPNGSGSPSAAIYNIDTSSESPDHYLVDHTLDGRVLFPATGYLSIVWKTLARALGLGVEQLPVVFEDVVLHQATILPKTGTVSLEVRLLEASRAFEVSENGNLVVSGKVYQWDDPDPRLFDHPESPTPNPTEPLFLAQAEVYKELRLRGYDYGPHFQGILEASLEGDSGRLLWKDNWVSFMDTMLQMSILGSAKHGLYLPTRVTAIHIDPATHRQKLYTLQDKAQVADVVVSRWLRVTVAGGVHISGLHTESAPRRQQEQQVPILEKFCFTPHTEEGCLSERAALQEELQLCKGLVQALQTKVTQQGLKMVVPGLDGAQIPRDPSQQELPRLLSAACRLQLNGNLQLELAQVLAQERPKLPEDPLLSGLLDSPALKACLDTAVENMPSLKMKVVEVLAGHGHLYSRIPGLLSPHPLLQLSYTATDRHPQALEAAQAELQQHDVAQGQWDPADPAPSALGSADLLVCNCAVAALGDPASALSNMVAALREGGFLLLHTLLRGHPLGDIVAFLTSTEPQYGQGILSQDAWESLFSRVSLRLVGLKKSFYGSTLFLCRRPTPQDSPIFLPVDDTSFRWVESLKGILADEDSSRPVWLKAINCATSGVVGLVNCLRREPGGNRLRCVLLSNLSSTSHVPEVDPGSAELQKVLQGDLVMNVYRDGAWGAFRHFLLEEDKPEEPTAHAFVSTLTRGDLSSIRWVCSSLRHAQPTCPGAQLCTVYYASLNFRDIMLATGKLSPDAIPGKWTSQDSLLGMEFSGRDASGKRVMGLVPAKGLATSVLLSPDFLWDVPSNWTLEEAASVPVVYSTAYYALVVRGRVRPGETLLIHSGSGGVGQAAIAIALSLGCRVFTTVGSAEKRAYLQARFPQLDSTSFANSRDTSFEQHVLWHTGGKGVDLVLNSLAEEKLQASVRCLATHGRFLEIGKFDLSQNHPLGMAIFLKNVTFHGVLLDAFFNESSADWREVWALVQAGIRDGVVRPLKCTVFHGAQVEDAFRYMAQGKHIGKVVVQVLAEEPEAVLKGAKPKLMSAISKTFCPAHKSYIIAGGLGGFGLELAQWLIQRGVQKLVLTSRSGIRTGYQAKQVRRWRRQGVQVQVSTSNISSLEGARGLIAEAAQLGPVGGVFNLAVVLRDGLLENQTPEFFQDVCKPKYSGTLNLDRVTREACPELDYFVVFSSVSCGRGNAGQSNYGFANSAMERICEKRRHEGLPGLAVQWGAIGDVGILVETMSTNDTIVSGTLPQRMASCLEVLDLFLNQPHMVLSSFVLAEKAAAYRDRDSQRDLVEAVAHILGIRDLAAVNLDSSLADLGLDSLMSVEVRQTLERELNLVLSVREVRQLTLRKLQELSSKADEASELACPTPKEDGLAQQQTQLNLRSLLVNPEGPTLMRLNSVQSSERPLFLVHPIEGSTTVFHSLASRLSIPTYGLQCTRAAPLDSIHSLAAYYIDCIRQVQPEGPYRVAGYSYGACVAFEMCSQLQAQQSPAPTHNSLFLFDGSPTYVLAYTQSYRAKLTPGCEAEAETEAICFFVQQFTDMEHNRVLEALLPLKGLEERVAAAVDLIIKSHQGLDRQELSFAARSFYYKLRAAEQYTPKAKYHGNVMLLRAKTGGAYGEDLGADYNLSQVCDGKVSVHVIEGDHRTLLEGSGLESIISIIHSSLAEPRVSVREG
T5 sequence (P33261 whole entry): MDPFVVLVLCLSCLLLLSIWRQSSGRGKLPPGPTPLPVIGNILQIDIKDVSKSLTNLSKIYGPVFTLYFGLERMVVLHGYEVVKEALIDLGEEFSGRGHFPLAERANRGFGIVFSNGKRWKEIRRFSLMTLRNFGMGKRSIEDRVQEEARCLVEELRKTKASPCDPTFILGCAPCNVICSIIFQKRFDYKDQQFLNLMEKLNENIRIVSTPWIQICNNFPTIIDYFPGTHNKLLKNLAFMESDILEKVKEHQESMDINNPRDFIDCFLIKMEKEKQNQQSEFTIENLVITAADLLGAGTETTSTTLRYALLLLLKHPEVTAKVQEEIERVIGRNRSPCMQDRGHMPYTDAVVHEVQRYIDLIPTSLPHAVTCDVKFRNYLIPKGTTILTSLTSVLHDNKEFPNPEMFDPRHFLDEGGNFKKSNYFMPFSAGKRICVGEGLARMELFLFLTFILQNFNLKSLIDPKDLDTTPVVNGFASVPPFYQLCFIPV

IC50 [1]: 140 nM
SMILES: CCCCCC(=O)Nc1nc(-c2ccc(S(=O)(=O)N3CCCC3)cc2)cs1 [Compound 50]

IC50 [1]: ≥ 80000 nM | activity in the enzyme-based assay ([1]; negative control): no activity | inhibition of FASN (blocking of FP-TAMRA binding) [3]: did not
SMILES: Cc1ccc(NC(=O)Cc2nc(-c3ccc(S(=O)(=O)N4CCOCC4)cc3)cs2)cc1 [Compound 97]
inhibition of palmitate synthesis in whole cells [2]: did not inhibit palmitate synthesis | de novo palmitate synthesis/DMSO (%) [2]: 95%

IC50 [1]: 14800 nM
SMILES: O=S(=O)(c1ccc(-c2csc(Nc3ccc(F)cc3)n2)cc1)N1CCCC1 [Compound 80]

IC50 [1]: 1480 nM
SMILES: O=S(=O)(c1ccc(-c2csc(-c3ccc(F)cc3)n2)cc1)N1CCOCC1 [Compound 116]

IC50 [1]: 5200 nM
SMILES: O=C(Nc1nc(-c2ccc(S(=O)(=O)N3CCOCC3)cc2)cs1)C1CC1 [Compound 17]

IC50 [1]: 4680 nM
SMILES: O=C(Nc1nc(-c2ccc(S(=O)(=O)N3CCCC3)cc2)cs1)c1ccco1 [Compound 4]

The next lines start with the compound.

SMILES: CCCCC(=O)Nc1nc(-c2ccc(S(=O)(=O)N3CCOCC3)cc2)cs1 [Compound 1]
IC50 [1]: 199 nM and 204 nM and 555 nM | inhibition of palmitate synthesis in whole cells [2]: inhibitory activity | de novo palmitate synthesis/DMSO (%) [2]: 40% | inhibition of FASN (blocking of FP-TAMRA binding) [3]: showed inhibition of FASN | binding of FP-TAMRA to the active site of the FASN thioesterase [4]: blocked the binding of FP-TAMRA | activity labeling of ACOT4 [5]: without effect

SMILES: CCC(C)C(=O)Nc1nc(-c2ccc(S(=O)(=O)N(CC)CC)cc2)cs1 (stereo not shown) [Compound 37]
IC50 [1]: 300 nM | inhibition of palmitate synthesis in whole cells [2]: dose-dependently inhibits palmitate synthesis | mode of inhibition [6]: non-competitive | binding of FP-TAMRA to the active site of the FASN thioesterase [4]: blocked the binding of FP-TAMRA | activity labeling of ACOT4 [5]: without effect | binding interactions >50% in panel of 34 binding assays [7]: Only two binding interactions>50% | binding interaction [8]: 50% | binding interaction [9]: 74% | interactions in panel of 17 proteases [10]: Only one interaction | IC50 [11]: 1700 nM | plasma levels post dosing ([12]; up to 30 min): > 3000 nM | plasma levels post dosing ([12]; up to 1 h): > 2000 nM | plasma levels post dosing ([12]; up to 2 h): > 1000 nM

SMILES: CCCCC(=O)Nc1nc(-c2ccc(S(=O)(=O)N3CCC(C)CC3)cc2)cs1 [Compound 22]
IC50 [1]: 501 nM | binding of FP-TAMRA to the active site of the FASN thioesterase [4]: blocked the binding of FP-TAMRA | activity labeling of ACOT4 [5]: without effect

SMILES: CCC(C)C(=O)Nc1nc(-c2ccc(S(=O)(=O)N3CCOCC3)cc2)cs1 (stereo not shown) [Compound 15]
IC50 [1]: 310 nM

SMILES: CCN(CC)S(=O)(=O)c1ccc(-c2csc(Cc3cccc(C(F)(F)F)c3)n2)cc1 [Compound 108]
IC50 [1]: ≥ 80000 nM

SMILES: CCN(CC)S(=O)(=O)c1ccc(-c2csc(NC(=O)CC(C)C)n2)cc1 [Compound 99]
IC50 [1]: 19000 nM

SMILES: CCN(CC)S(=O)(=O)c1ccc(-c2csc(Cc3ccccc3F)n2)cc1 [Compound 109]
IC50 [1]: 1720 nM

SMILES: CCN(CC)S(=O)(=O)c1ccc(-c2csc(-c3cccc(Br)c3)n2)cc1 [Compound 107]
IC50 [1]: ≥ 80000 nM
